Experimental data published in patent publication US9888679B2, “Protection of progenitor cells and regulation of their differentiation” (Proteobioactives Pty Ltd, priority 2007, dated 2018).
Entries after “also recorded” stand apart in the source; their conditions may differ.

Legend:
Normal Human MSCs = test: Freeze/thaw viability of MSCs cryopreserved with PPS, trypan blue cell counts; format: cell-based
Method: FIG. 1. The Effects of Pentosan Polysulfate (PPS) on Normal Human MSCs Freeze/Thaw Viabilities. MSCs were rapidly thawed in a 37° C. water bath and washed twice with HHF (HBSS containing 5% (v/v) Foetal Calf Serum). The cells were subsequently seeded into multiple T-75 flasks at 8,000 cells/cm^2. The cells were grown until 70-80% confluent, trypsinised and cryopreserved at cell concentrations of 50×10^6/ml in Profreeze®/7.5% DMSO supplemented with PPS at the indicated concentrations. Ampoules were retrieved from liquid nitrogen storage and rapidly thawed, gently mixed and 10 ul samples removed at time=0, 30, 60, 90 and 120 minutes. To each cell sample, 290 ul of trypan blue was added and cell counts/viability testing performed.
Cells were harvested and resuspended in cold serum free culture medium at 5.0 to 20.0×10^6 cells/ml. An equal volume of chilled complete Profreeze®-CDM medium was added to the chilled cell suspension containing 0, 10, 20, 50 and 100 micrograms/mL of PPS. The resulting final DMSO concentration was 7.5%, PPS concentration was 0, 5, 10, 25 and 50 micrograms/mL and the final cell concentration was approximately 2.5 to 10×10^6 cells/ml. The cell mixture was aliquoted into cryopreservation ampoules (Nunc, Intermed, Denmark) and cryopreserved in a C156 Freezing Container (Thermo Scientific, Melbourne, 21 Australia) at −80° C. for a −1° C./minute controlled cooling rate. The ampoules were then transferred to liquid nitrogen storage (−196° C.).
Cyropreserved cells were rapidly thawed for a minute in a 37° C. water bath and transferred to a 10 mL polypropylene tube. Approximately 3 mL of appropriate media was added dropwise to the cells with constant mixing, and made up to a final volume of 10 mL. Cells were pelleted by centrifugation at 400×g, 4° C. for 5 minutes and the supernatant aspirated. To ensure removal of residual DMSO, cells were washed in medium and centrifuged as above. Cells were resuspended in final volume of 10 mL and seeded in a 75 cm^2 flask prior to incubation in a humidified incubator at 37° C. in the presence of 5% CO2.
Aliquots of single-cell suspensions obtained after thawing progenitor cells from the PPS containing cryopreserved vials were diluted in an equal volume of 0.4% (w/v) trypan blue in phosphate buffered saline (PBS). The cell counts were determined using a haemocytometer (Neubauer Improved, Assistant, Germany) and a light microscope (Olympus CKX41, Japan).

[1] = tested on: murine progenitor cells (C3H10T1-2); test: Proteoglycan synthesis in micromass cultures, 6 and 9 days; format: cell-based; conditions: FIG. 16
Method: FIG. 16. A bar graph showing the concentration dependent effects of PPS on proteoglycan synthesis by murine progenitor cells (C3H10T1-2) in micromass cultures for 6 days and 9 days. PPS was included in the media (Ham's F12+10% FCS) and was changed every 48 hours. ^35S—SO4 was added 24 hours before culture termination. Synthesis normalized to DNA content. * P<0.05, **P<0.005, ***P<0.0005 relative to controls.
The technique used was based on that described by (Denker A E, Haas A R, Nicoll S B and Tuan R S. Chondrogenic differentiation of murine C3H10T1/2 multipotential progenitor cells: I. Stimulation by bone morphogenetic protein-2 in high density micromass cultures. Differentiation (1999); 64: 67-76). Briefly murine Progenitor cells (cell lines C3H10T1/2 or ATDC5) purchased from RIKEN Cell Bank (Tsukuba, Japan) or human immunoselected Stro-1+ Progenitor cells (Mesoblast Ltd, Melbourne, Australia) Ten microlitres (10 μl) of a suspension of the progenitor cells (1×10^7 cells/ml in Ham's F12 medium+10% FBS) were applied to individual wells of a 24-well plates. […] The radioactivity of ^35S—SO4 incorporated the ^35S-GAG-CPC complexes was measured by scintillation counting. […]

Substance: pentosan polysulfate [PPS]
- cell viability after cryopreservation and thawing (Normal Human MSCs; 5 μg/ml PPS): beneficial effect on viability at 60 minutes
- cell viability after cryopreservation and thawing (Normal Human MSCs; 10 μg/ml PPS): beneficial effect at time point 0 and then at 60 and 90 minutes
- cell viability after cryopreservation and thawing (Normal Human MSCs; 25 μg/ml PPS, all time points instead of 30 minutes): either enhanced the viability or did not adversely affect the viability
- cell viability after cryopreservation and thawing (Normal Human MSCs; 50 μg/ml PPS, with the exception of 30 minutes): enhanced the viability of the progenitor cells at all time points
- cell viability after cryopreservation and thawing (Normal Human MSCs; Profreeze/7.5% DMSO with PPS 5-50 μg/ml, 0-120 min after thawing, FIG. 1): did not adversely affect cell viability; also recorded: did not have an adverse effect on the cryopreservation; also recorded: did not have an adverse effect and may enhance the cryopreservation of progenitor cells
- cell viability after cryopreservation and thawing (Normal Human MSCs; Profreeze/7.5% DMSO with PPS 5-50 μg/ml, 0-120 min after thawing, FIG. 1, listed as polysulfated polysaccharides): no detrimental effect on their viability
- uptake of 35S into newly synthesized PG ([1]; 1-20 micrograms/mL, micromass): Highly significant stimulation
- stimulation of proteoglycan synthesis ([1]; 1 microgram/mL, nine days in micromass cultures): 100%
